From patent publication US10738028B2, “Spiro three-membered ring, spiro five-membered ring peptide deformylase inhibitor and use thereof in antibacteria and anti-tumor” (priority 2016, dated 2020)
Converted amounts (≈) assume the structure as drawn.

Legend:
Type in all cases: cell-based
[1] = system: BEL-7402 liver cancer cell line; experiment: CCK-8 proliferation inhibition; conditions: concentration of 30 μM, 72 hours, 30 µM
Text: (§1) 2. The present invention adopts the CCK-8 method to determine the proliferation inhibition effect of the spiro three-membered ring, spiro five-membered ring peptide deformylase inhibitor as described in Examples 1-80 against colorectal cancer cells, lung cancer cells, gastric cancer cells, liver cancer cells, and the like. […] The compound having the best activity synthesized in Example 64 was further tested for its inhibitory activity against other tumor cells including T cell leukemia, acute myeloid leukemia, cervical cancer, breast cancer, prostate cancer and osteosarcoma, and the like (see Table 7).
(§2) (1) HCT-116 colorectal cancer cell line, A549 lung cancer cell line, MGC-803 gastric cancer cell line, BEL-7402 liver cancer cell line, Jurkat T cell leukemia cell line, HL60 acute myeloid leukemia cell line, Hela cervical cancer cell line, MCF-7 breast cancer cell line, PC3 prostate cancer cell line and SAOS-2 osteosarcoma cell line were made into single cell suspension, 180 μL of which was inoculated into 96-well culture plate, which was cultured overnight in CO2 incubator (37° C., 5% CO2, 95% air).
(§3) (2) Each of the spiro three-membered ring, spiro five membered ring peptide deformylase inhibitors was dissolved in DMSO, and was further formulated into drug solution with required different final concentration using corresponding cell culture medium. The drug solutions were added to the above cells respectively (20 μL/well), with the control group added with 1‰ DMSO, and cultured in a CO2 incubator for 72 hours.
(§4) (3) After incubation for 72 hours, the culture solution was decanted, and 100 μL of 1:10 diluted CCK-8 solution was added.
(§5) Wherein, in step (1), the concentration of the single cell suspension was 2000 cells/well.
(§6) Wherein, in step (2), HCT-116 cells were cultured in McCoy's 5A medium (containing 10% newborn bovine serum, 1% double antibody); A549 and PC3 cells were cultured in F12 medium (containing 10% newborn bovine serum, 1% double antibody); MGC-803, BEL-7402, SAOS-2, Jurkat and HL60 cells were cultured in 1640 medium (containing 10% newborn bovine serum, 1% double antibody); and MCF-7 and Hela cells were cultured in DMEM high glucose medium (containing 10% newborn bovine serum, 1% double antibody).

[2] = system: MGC-803 gastric cancer cell line; experiment: CCK-8 proliferation inhibition; conditions: Homo sapiens, MGC-803, 72 h, concentration of 30 μM
Text: as §1, §2, §3, §4, §5, §6

[3] = system: A549 lung cancer cell line; experiment: CCK-8 proliferation inhibition; conditions: Homo sapiens, A549, 72 h, concentration of 30 μM
Text: as §1, §2, §3, §4, §5, §6

[4] = system: HCT-116 colorectal cancer cell line; experiment: CCK-8 proliferation inhibition; conditions: concentration of 30 μM, 72 hours, CCK-8
How it was run: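 Growth inhibition is read by CCK-8 (1:10 dilution) after 72 h of compound exposure. HCT-116 cells grow in McCoy's 5A containing 10% newborn bovine serum at 2000 cells/well, with 1‰ DMSO as vehicle control.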

[5] = system: Enterococcus faecium (EFM); experiment: MIC, two-fold agar dilution (CLSI), clinical isolates
How it was run: (§7)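 Samples are serially diluted two-fold in agar following CLSI guidance. Plates are then inoculated with the tested strains. The lowest inhibiting concentration is recorded as MIC.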

[6] = system: Enterococcus faecalis (EFA); experiment: as above
How it was run: as §7

[7] = system: methicillin-sensitive Staphylococcus epidermidis (MSSE); experiment: as above
How it was run: as §7

[8] = system: Streptococcus pneoumoniae (SPN); experiment: as above
How it was run: as §7

[9] = system: methicillin-resistant Staphylococcus aureus (MRSA); experiment: as above
How it was run: as §7

[10] = system: methicillin-sensitive Staphylococcus aureus (MSSA); experiment: as above
How it was run: as §7

[11] = system: methicillin-resistant Staphylococcus epidermidis (MRSE); experiment: as above
How it was run: as §7

[12] = system: Escherichia coli (including ESBLs, non-ESBLs); experiment: as above
How it was run: as §7

[13] = system: Moraxella catarrhalis (BCA); experiment: as above
How it was run: as §7

O=CN(O)C[C@@H](CC1CCCC1)C(=O)N1CC2(CC2)C[C@H]1C(=O)Nc1ncco1 [Example 36]
Inhibition of proliferation, Liver cancer BEL-7402 [1]: 73% | inhibition at 30 µM [2]: 46% | inhibition at 30 µM [3]: 26% | inhibition at 30 µM ([4]; Homo sapiens, HCT-116, 72 h, read-out: HCT116 inhibition rate/%): > 50% | HCT116 inhibition rate/% ([4]; 30 µM): 60% | MIC (anti-bacterial activity) ([5]; strain EFM 15-1): 16 µg/mL (≈ 39.6 µM) | MIC (anti-bacterial activity) ([5]; strain EFM 15-2): 8 µg/mL (≈ 19.8 µM) | MIC (anti-bacterial activity) ([5]; strain EFM 15-3): 2 µg/mL (≈ 4.94 µM) | MIC (anti-bacterial activity) ([5]; strain EFM 15-4): 8 µg/mL (≈ 19.8 µM) | MIC (anti-bacterial activity) ([5]; strain EFM 15-5): 8 µg/mL (≈ 19.8 µM) | MIC (anti-bacterial activity) ([5]; strain EFM 15-6): 8 µg/mL (≈ 19.8 µM) | MIC (anti-bacterial activity) ([6]; strain EFA 15-1): 16 µg/mL (≈ 39.6 µM) | MIC (anti-bacterial activity) ([6]; strain EFA 15-2): 16 µg/mL (≈ 39.6 µM) | MIC (anti-bacterial activity) ([6]; strain EFA 15-3): 16 µg/mL (≈ 39.6 µM) | MIC (anti-bacterial activity) ([6]; strain EFA 15-4): 16 µg/mL (≈ 39.6 µM) | MIC (anti-bacterial activity) ([6]; strain EFA 15-5): 16 µg/mL (≈ 39.6 µM) | MIC (anti-bacterial activity) ([6]; strain EFA 15-6): 16 µg/mL (≈ 39.6 µM) | MIC (anti-bacterial activity) ([6]; strain EFA 15-9): 16 µg/mL (≈ 39.6 µM) | MIC (anti-bacterial activity) ([7]; strain MSSE 15-3): 8 µg/mL (≈ 19.8 µM) | MIC (anti-bacterial activity) ([7]; strain MSSE 15-4): 8 µg/mL (≈ 19.8 µM) | MIC (anti-bacterial activity) ([7]; strain MSSE 15-5): 8 µg/mL (≈ 19.8 µM) | MIC (anti-bacterial activity) ([7]; strain MSSE 15-6): 8 µg/mL (≈ 19.8 µM) | MIC (anti-bacterial activity) ([8]; strain SPN 16-2): 2 µg/mL (≈ 4.94 µM) | MIC (anti-bacterial activity) ([8]; strain SPN 16-4): 16 µg/mL (≈ 39.6 µM) | MIC (anti-bacterial activity) ([9]; strain MRSA 15-1): 4 µg/mL (≈ 9.89 µM) | MIC (anti-bacterial activity) ([9]; strain MRSA 15-2): 8 µg/mL (≈ 19.8 µM) | MIC (anti-bacterial activity) ([9]; strain MRSA 15-3): 4 µg/mL (≈ 9.89 µM) | MIC (anti-bacterial activity) ([9]; strain MRSA 15-4): 8 µg/mL (≈ 19.8 µM) | MIC (anti-bacterial activity) ([10]; strain MSSA 15-3): 8 µg/mL (≈ 19.8 µM) | MIC (anti-bacterial activity) ([10]; strain MSSA 15-4): 8 µg/mL (≈ 19.8 µM) | MIC (anti-bacterial activity) ([10]; strain MSSA 15-5): 8 µg/mL (≈ 19.8 µM) | MIC (anti-bacterial activity) ([10]; strain MSSA 15-6): 4 µg/mL (≈ 9.89 µM) | MIC (anti-bacterial activity) ([11]; strain MRSE 15-1): 4 µg/mL (≈ 9.89 µM) | MIC (anti-bacterial activity) ([11]; strain MRSE 15-2): 8 µg/mL (≈ 19.8 µM) | MIC (anti-bacterial activity) ([11]; strain MRSE 15-3): 8 µg/mL (≈ 19.8 µM) | MIC (anti-bacterial activity) ([11]; strain MRSE 15-7): 8 µg/mL (≈ 19.8 µM) | MIC (anti-bacterial activity) ([12]; strain ECO+ 15-1): 8 µg/mL (≈ 19.8 µM) | MIC (anti-bacterial activity) ([12]; strain ECO+ 15-2): > 32 µg/mL | MIC (anti-bacterial activity) ([12]; strain ECO+ 15-3): > 32 µg/mL | MIC (anti-bacterial activity) ([12]; strain ECO+ 15-4): > 32 µg/mL | MIC (anti-bacterial activity) ([12]; strain ECO− 15-1): > 32 µg/mL | MIC (anti-bacterial activity) ([12]; strain ECO− 15-2): 32 µg/mL (≈ 79.1 µM) | MIC (anti-bacterial activity) ([12]; strain ECO− 15-3): 32 µg/mL (≈ 79.1 µM) | MIC (anti-bacterial activity) ([12]; strain ECO− 15-4): 32 µg/mL (≈ 79.1 µM) | Anti-bacterial activity (MIC), strain BCA 14-10 ([13]; clinical isolate BCA 14-10): 2 µg/mL | MIC (anti-bacterial activity) ([13]; strain BCA 14-1): 16 µg/mL (≈ 39.6 µM) | MIC (anti-bacterial activity) ([13]; strain BCA 14-4): 16 µg/mL (≈ 39.6 µM) | MIC (anti-bacterial activity) ([13]; strain BCA 14-5): 4 µg/mL (≈ 9.89 µM) | MIC (anti-bacterial activity) ([13]; strain BCA 14-6): 16 µg/mL (≈ 39.6 µM) | MIC (anti-bacterial activity) ([13]; strain BCA 14-7): 4 µg/mL (≈ 9.89 µM) | MIC (anti-bacterial activity) ([13]; strain BCA 14-8): 8 µg/mL (≈ 19.8 µM)
